From ChEMBL document CHEMBL1697781, “Assessment of the health effects of chemicals in humans: II. Construction of an adverse effects database for QSAR modeling” (Curr Drug Discov Technol, 2004)

How the values were obtained:
Settings in all cases: human; call rule not given here
[1] = system: Hepatotoxicity; experiment: FDA HLAED, liver enzyme composite activity
[2] = system: Hepatotoxicity; experiment: FDA HLAED, alkaline phosphatase increase
[3] = system: Hepatotoxicity; experiment: FDA HLAED, serum glutamic oxaloacetic transaminase (SGOT) increase
[4] = system: Hepatotoxicity; experiment: FDA HLAED, serum glutamic pyruvic transaminase (SGPT) increase
[5] = system: Hepatotoxicity; experiment: FDA HLAED, lactate dehydrogenase (LDH) increase
[6] = system: Hepatotoxicity; experiment: FDA HLAED, gamma-glutamyl transferase (GGT) increase
Throughout, for GGT Increase - Index Value: reference of the scale not given here.
Throughout, for LDH Increase - Index Value: reference of the scale not given here.

SMILES	Composite Activity - Active [1]	Composite Activity - Marginal [1]	Composite Activity - Score [1]	Alkaline Phosphatase Increase - Activity Score [2]	Alkaline Phosphatase Increase - Index Value [2]	Alkaline Phosphatase Increase - Number of Reports [2]	SGOT Increase - Activity Score [3]	SGOT Increase - Index Value [3]	SGOT Increase - Number of Reports [3]	SGPT Increase - Activity Score [4]	SGPT Increase - Index Value [4]	SGPT Increase - Number of Reports [4]	LDH Increase - Activity Score [5]	LDH Increase - Index Value [5]	LDH Increase - Number of Reports [5]	GGT Increase - Activity Score [6]	GGT Increase - Index Value [6]	GGT Increase - Number of Reports [6]	other results
OC(c1cc(C(F)(F)F)nc2c(C(F)(F)F)cccc12)C1CCCCN1 (configuration not stated) [MEFLOQUINE]	3	0	Active	Inactive	7.2	< 4	Active	25.3	>= 4	Active	32.5	>= 4	Inactive	0	< 4	Active	18	>= 4	
CC(C(=O)O)c1ccc(-c2ccccc2)c(F)c1 (configuration not stated) [FLURBIPROFEN]	0	0	Inactive	Inactive	0.9	>= 4	Inactive	0.9	>= 4	Inactive	0.9	>= 4	Inactive	0.2	< 4	Inactive	0.9	>= 4	
CC(C)c1ccc2oc3nc(N)c(C(=O)O)cc3c(=O)c2c1 [AMLEXANOX]	0	0	Inactive	Inactive	0	< 4	Inactive	0	< 4	Inactive	0	< 4	Inactive	0	< 4	Inactive	0	< 4	
N#Cc1cc(NC(=O)C(=O)O)c(Cl)c(NC(=O)C(=O)O)c1 [LODOXAMIDE]	0	0	Inactive	Inactive	0	< 4	Inactive	0	< 4	Inactive	0	< 4	Inactive	0	< 4	Inactive	0	< 4	
C[C@H]1[C@H](NC(=O)/C(=N\OC(C)(C)C(=O)O)c2csc(N)n2)C(=O)N1S(=O)(=O)O [AZTREONAM]	1	2	Inactive	Active	6.9	>= 4	Marginally Active	3.2	>= 4	Marginally Active	3.8	>= 4	Inactive	0.6	< 4	Inactive	0.6	< 4	
C[C@@H](CN1CC(=O)NC(=O)C1)N1CC(=O)NC(=O)C1 [DEXRAZOXANE]	0	0	Inactive	Inactive	0	< 4	Inactive	0	< 4	Inactive	0	< 4	Inactive	0	< 4	Inactive	0	< 4	
CCCCC(=O)O[C@H]1CC[C@H]2[C@@H]3CCc4cc(O)ccc4[C@H]3CC[C@]12C [ESTRADIOL VALERATE]	0	0	Inactive	Inactive	1.5	>= 4	Inactive	2.8	>= 4	Inactive	2.1	>= 4	Inactive	1.2	>= 4	Inactive	0.3	< 4	
CCOC(=O)[C@H](CCc1ccccc1)N[C@H]1CCc2ccccc2N(CC(=O)O)C1=O [BENAZEPRIL]	0	0	Inactive	Inactive	0.3	< 4	Inactive	0	< 4	Inactive	0	< 4	Inactive	0.2	< 4	Inactive	0.2	< 4	
O=C(O)Cc1ccccc1Nc1c(Cl)cccc1Cl [DICLOFENAC]				Active	9.2	>= 4	Active	11.4	>= 4	Active	11.1	>= 4	Inactive	2	>= 4	Marginally Active	3.8	>= 4	Composite Activity - Active ([1]; Liver): 3; Composite Activity - Marginal ([1]; Liver): 1; Composite Activity - Score ([1]; Liver): Active
